Assay results taken from ChEMBL document CHEMBL4396932, “Rasagiline derivatives combined with histamine H3 receptor properties” (Bioorg Med Chem Lett, 2019).

Assays:
[1] = target: T1, Amine oxidase [flavin-containing] B (Rattus norvegicus, UniProt P19643); assay: Inhibition of rat brain MAO-B using [14C]-phenylethylamine as substrate preincubated for 60 mins followed by substrate addition and measured after 20 mins by liquid scintillation counting method
T1 sequence (P19643 whole entry): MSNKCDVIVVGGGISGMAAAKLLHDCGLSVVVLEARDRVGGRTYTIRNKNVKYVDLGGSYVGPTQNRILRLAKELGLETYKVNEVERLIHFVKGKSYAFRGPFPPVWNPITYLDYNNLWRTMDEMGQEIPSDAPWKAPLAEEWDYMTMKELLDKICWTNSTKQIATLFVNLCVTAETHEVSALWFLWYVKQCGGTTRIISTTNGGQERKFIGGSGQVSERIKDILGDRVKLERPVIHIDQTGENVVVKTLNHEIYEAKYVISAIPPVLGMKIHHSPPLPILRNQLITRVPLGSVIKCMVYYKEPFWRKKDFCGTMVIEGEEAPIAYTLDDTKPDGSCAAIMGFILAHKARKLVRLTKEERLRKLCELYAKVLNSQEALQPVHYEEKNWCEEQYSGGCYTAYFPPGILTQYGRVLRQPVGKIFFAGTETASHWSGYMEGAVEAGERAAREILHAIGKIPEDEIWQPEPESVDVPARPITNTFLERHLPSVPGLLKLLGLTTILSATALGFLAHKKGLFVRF

[2] = Cytotoxicity against human SH-SY5Y cells assessed as cell viability at 1 mM and measured after 24 hrs by resazurin dye based fluorescence assay relative to control; conditions: read-out: Activity
[3] = target: T2, Amine oxidase [flavin-containing] A (Homo sapiens, UniProt P21397); assay: Inhibition of human recombinant MAO-A using kynuramine as substrate by discontinuous fluorimetric analysis
T2 sequence (P21397 whole entry): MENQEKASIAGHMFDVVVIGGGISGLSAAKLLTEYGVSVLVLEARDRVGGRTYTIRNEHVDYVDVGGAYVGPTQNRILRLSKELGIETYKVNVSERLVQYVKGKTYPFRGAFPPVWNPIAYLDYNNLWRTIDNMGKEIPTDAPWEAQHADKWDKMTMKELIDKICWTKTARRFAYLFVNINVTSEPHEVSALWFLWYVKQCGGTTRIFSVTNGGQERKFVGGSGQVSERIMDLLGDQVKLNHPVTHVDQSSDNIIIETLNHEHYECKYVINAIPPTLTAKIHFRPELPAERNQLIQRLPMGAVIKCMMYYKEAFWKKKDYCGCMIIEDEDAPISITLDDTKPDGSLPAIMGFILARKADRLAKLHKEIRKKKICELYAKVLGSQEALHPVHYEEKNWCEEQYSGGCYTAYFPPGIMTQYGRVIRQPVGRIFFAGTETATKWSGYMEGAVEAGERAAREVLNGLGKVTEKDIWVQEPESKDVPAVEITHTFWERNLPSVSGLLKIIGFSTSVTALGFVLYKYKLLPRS

[4] = target: Cholinesterase (Equus caballus) (UniProt P81908); assay: Inhibition of equine serum BuChE at 10 uM using acetylthiocholine iodide as substrate preincubated for 30 mins followed by substrate addition and measured every 40 secs for 30 mins by Ellman's method relative to control
Chain of Cholinesterase (Equus caballus) (P81908 whole entry): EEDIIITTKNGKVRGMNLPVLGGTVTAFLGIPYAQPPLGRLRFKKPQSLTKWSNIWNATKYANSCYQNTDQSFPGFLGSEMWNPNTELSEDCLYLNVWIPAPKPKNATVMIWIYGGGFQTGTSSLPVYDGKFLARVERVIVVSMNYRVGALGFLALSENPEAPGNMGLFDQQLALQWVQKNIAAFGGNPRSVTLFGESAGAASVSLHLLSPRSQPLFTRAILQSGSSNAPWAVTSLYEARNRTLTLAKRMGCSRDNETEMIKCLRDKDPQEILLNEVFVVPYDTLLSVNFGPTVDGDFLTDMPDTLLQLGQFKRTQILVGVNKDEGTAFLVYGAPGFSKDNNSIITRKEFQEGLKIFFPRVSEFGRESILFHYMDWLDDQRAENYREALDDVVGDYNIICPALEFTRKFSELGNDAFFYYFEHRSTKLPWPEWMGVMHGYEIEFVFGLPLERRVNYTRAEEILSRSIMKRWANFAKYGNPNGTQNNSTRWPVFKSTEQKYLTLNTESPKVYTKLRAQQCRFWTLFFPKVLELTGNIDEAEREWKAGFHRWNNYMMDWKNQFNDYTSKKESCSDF

[5] = target: T2, Amine oxidase [flavin-containing] A; assay: Inhibition of human recombinant MAO-A using kynuramine as substrate preincubated for 60 mins followed by substrate addition by discontinuous fluorimetric analysis
[6] = Cytotoxicity against human SH-SY5Y cells assessed as cell viability at 10 uM measured after 24 hrs by resazurin dye based fluorescence assay relative to control; conditions: read-out: Activity
[7] = target: T3, Amine oxidase [flavin-containing] B (Homo sapiens, UniProt P27338); assay: Inhibition of human recombinant MAO-B using kynuramine as substrate preincubated for 60 mins followed by substrate addition by discontinuous fluorimetric analysis
T3 sequence (P27338 whole entry): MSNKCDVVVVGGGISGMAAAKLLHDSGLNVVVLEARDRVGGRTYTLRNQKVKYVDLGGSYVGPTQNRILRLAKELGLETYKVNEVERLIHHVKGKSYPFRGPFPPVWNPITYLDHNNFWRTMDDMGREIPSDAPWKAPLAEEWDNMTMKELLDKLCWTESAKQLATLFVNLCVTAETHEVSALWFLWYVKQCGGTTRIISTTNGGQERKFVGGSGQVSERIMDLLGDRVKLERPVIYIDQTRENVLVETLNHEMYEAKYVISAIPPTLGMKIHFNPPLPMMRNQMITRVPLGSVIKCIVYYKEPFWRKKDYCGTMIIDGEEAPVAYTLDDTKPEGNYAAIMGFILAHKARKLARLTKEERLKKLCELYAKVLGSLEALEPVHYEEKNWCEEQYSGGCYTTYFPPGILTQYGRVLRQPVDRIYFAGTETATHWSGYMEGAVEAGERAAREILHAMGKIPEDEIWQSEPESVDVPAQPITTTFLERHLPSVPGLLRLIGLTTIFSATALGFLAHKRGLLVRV

[8] = species: Homo sapiens; assay: Selectivity index, ratio of IC50 for human recombinant MAO-A using kynuramine as substrate preincubated for 60 mins followed by substrate addition to IC50 for human recombinant MAO-B using kynuramine as substrate preincubated for 60 mins followed by substrate addition
[9] = Cytotoxicity against human SH-SY5Y cells assessed as cell viability at 1 uM measured after 24 hrs by resazurin dye based fluorescence assay relative to control; conditions: read-out: Activity
[10] = target: T3, Amine oxidase [flavin-containing] B; assay: Inhibition of human recombinant MAO-B using kynuramine as substrate by discontinuous fluorimetric analysis
[11] = target: Histamine H3 receptor (Homo sapiens, UniProt Q9Y5N1); assay: Displacement of [3H] N-alpha methylhistamine from human recombinant H3 receptor expressed in HEK293 cells incubated for 90 min; assay type: cell-based
Chain of Histamine H3 receptor (Q9Y5N1 whole entry): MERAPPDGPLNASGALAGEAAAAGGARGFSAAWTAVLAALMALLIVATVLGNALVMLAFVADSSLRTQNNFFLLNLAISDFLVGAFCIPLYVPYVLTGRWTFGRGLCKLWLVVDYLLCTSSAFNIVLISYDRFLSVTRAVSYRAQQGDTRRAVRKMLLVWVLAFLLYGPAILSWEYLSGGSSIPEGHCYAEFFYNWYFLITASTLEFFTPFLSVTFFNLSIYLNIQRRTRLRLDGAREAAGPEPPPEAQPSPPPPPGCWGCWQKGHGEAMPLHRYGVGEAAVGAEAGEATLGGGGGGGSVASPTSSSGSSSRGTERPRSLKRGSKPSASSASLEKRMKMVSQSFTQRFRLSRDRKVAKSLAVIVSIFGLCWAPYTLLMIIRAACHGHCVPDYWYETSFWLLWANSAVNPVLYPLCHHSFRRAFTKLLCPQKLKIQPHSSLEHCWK

[12] = species: Homo sapiens; assay: Selectivity index, ratio of IC50 for human recombinant MAO-A to IC50 for human recombinant MAO-B using kynuramine as substrate
[13] = target: Acetylcholinesterase (Electrophorus electricus) (UniProt O42275); assay: Inhibition of electric eel AChE at 10 uM using acetylthiocholine iodide as substrate preincubated for 30 mins followed by substrate addition and measured every 40 secs for 30 mins by Ellman's method relative to control
Chain of Acetylcholinesterase (Electrophorus electricus) (O42275 24-633 limits assumed): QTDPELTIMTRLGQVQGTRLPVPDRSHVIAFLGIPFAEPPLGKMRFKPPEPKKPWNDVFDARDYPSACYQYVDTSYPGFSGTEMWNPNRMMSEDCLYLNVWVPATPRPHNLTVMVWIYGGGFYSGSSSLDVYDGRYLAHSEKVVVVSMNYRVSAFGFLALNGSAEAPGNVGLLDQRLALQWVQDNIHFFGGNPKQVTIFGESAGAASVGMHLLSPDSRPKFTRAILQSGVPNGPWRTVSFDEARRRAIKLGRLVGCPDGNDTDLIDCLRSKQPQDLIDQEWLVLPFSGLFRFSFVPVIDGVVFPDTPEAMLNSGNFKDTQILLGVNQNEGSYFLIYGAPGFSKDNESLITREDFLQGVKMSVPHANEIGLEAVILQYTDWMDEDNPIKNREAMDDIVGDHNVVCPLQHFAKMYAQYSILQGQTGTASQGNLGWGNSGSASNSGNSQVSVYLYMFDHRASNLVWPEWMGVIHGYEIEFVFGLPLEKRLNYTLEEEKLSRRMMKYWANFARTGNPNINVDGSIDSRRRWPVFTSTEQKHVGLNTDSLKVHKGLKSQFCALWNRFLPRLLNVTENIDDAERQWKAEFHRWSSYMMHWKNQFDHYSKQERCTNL

[14] = target: Histamine H1 receptor (Homo sapiens, UniProt P35367); assay: Displacement of [3H] pyrilamine from human H1 histamine receptor
Chain of Histamine H1 receptor (P35367 whole entry): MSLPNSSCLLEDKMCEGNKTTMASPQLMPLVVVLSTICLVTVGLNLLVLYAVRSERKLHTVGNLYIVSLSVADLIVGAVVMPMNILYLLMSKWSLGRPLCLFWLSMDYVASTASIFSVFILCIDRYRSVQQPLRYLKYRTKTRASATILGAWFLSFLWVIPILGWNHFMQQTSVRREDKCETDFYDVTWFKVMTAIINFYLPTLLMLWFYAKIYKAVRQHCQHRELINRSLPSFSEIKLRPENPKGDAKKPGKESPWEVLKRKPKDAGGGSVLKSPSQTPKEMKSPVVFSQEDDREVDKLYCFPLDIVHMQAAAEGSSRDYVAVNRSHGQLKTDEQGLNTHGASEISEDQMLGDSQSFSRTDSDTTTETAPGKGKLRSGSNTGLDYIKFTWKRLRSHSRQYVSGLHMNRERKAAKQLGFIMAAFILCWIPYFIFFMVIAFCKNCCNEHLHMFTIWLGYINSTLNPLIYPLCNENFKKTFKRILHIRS

[15] = target: T3, Amine oxidase [flavin-containing] B; assay: Inhibition of human recombinant MAO-B using kynuramine as substrate preincubated for 30 mins followed by substrate addition by discontinuous fluorimetric analysis
[16] = target: Histamine H4 receptor (Homo sapiens, UniProt Q9H3N8); assay: Displacement of [3H] histamine from human H4 histamine receptor
Chain of Histamine H4 receptor (Q9H3N8 whole entry): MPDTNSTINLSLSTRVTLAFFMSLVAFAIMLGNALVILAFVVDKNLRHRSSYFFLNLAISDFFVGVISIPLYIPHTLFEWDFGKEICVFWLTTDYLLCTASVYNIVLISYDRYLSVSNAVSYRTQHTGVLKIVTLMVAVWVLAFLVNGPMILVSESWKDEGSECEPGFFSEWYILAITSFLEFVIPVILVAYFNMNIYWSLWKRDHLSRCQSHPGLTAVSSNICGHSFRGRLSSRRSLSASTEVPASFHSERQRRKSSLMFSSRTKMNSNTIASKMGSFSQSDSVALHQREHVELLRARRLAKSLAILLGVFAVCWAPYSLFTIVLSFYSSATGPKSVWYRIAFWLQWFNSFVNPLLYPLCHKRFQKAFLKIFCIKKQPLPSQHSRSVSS

[17] = target: T3, Amine oxidase [flavin-containing] B; assay: Irreversible inhibition of human recombinant MAO-B assessed as reduction in enzyme activity at 10 times IC50 using kynuramine as substrate preincubated with compound followed by substrate addition by discontinuous fluorimetric analysis; conditions: TDE = time-dependent effect
[18] = target: T2, Amine oxidase [flavin-containing] A; assay: Inhibition of human recombinant MAO-A using kynuramine as substrate preincubated for 30 mins followed by substrate addition by discontinuous fluorimetric analysis
[19] = target: D(3) dopamine receptor (Homo sapiens, UniProt P35462); assay: Displacement of [3H] spiperone from human D3 dopamine receptor
Chain of D(3) dopamine receptor (P35462 whole entry): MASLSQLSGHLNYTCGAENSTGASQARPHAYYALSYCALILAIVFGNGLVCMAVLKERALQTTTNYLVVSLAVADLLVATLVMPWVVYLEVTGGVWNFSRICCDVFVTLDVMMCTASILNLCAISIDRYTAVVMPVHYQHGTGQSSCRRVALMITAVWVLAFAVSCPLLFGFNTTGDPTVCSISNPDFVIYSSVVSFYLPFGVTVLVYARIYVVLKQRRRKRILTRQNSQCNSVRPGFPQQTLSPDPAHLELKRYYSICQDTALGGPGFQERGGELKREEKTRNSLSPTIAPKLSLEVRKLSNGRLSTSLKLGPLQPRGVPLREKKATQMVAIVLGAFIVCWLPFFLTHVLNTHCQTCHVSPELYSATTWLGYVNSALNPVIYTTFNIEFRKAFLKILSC

[20] = target: D(2) dopamine receptor (Homo sapiens, UniProt P14416); assay: Displacement of [3H] spiperone from human D2 dopamine receptor
Chain of D(2) dopamine receptor (P14416 whole entry): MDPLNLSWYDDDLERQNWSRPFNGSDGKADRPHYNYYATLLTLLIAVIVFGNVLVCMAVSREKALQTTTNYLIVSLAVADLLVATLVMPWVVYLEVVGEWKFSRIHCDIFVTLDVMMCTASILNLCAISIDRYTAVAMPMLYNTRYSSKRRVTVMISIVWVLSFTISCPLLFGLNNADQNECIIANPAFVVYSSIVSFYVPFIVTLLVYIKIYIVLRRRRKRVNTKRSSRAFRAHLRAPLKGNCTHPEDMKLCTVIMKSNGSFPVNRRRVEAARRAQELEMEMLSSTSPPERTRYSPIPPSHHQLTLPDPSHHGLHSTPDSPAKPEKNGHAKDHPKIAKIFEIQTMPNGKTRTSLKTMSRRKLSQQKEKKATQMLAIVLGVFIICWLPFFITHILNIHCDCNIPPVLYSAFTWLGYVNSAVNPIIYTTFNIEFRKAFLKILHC

[21] = species: Homo sapiens; assay: Selectivity index, ratio of IC50 for human recombinant MAO-A using kynuramine as substrate preincubated for 30 mins followed by substrate addition to IC50 for human recombinant MAO-B using kynuramine as substrate preincubated for 30 mins followed by substrate addition

SMILES | IC50 [3] | inhibition [4] | IC50 [5] | viability at 24 h, 10 µM [6] | IC50 [7] | Ratio IC50 [8] | viability at 24 h, 1 µM [9] | IC50 [10] | Ki ([11]; read-out: Ki) | Ki ([11]; read-out: pKi (converted)) | Ratio IC50 [12] | inhibition [13] | further results
C#CCN[C@@H]1CCc2ccc(OC(=O)N(C)CC)cc21 [LADOSTIGIL] |  |  |  |  |  |  |  |  |  |  |  |  | IC50 [1]: > 1000 µM
C[n+]1ccc(-c2ccccc2)cc1 |  |  |  |  |  |  |  |  |  |  |  |  | viability at 24 h, 1000 µM [2]: 1.8%
C#CCNC1CCc2ccc(OCCCN3CCCCC3)cc21 (centres undefined) | > 100 µM | 47% | > 50 µM | 100% | 10.5 µM | > 4.8 | 84% | 7.92 µM | 0.0067 µM | < 0.01 µM | > 13 | 47% | 
C#CCNC1CCc2cc(OCCCN3CCCCC3)ccc21 (centres undefined) | > 100 µM | 32% | > 10 µM | 95.6% | 0.256 µM | > 39 | 89.7% | 0.991 µM | 0.0026 µM | < 0.01 µM | > 100 | 57% | Ki [14]: > 10 µM; IC50 [15]: 1.05 µM; Ki [16]: > 100 µM; inhibition (INH) [17]: Tde; IC50 [18]: > 100 µM; Ki [19]: > 10 µM; Ki [20]: > 10 µM; Ratio IC50 [21]: > 95
